Measurements taken from paper PMC6979384, “Characterization of the plant homeodomain (PHD) reader family for their histone tail interactions” (Epigenetics & Chromatin, 2020).
Where no end group is shown, it is not given here. Me3 = trimethyl (on lysine side chain)

Assays:
Assay in all cases: Histone peptide microarray
Type in all cases: binding, human
PHF2 = conditions: GST-tagged PHF2
Outline: (§1)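 Recombinant GST-PHD protein at 0.5 μM; 293-member modified histone peptide array; signals averaged from four repeats ± SD.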

CHD5 (PCC) = system: CHD5 (PCC)
Outline: as §1

CHD4 (PPCC) = system: CHD4 (PPCC)
Outline: as §1

DPF2 (PPC2W2) = system: DPF2 (PPC2W2)
Outline: as §1

BPTF (PB) = system: BPTF (PB)
Outline: as §1

KDM7A = conditions: GST-tagged KDM7A
Outline: as §1

SP140L = conditions: GST-tagged SP140L
Outline: as §1

AIRE (PP) = conditions: GST-tagged AIRE (PP)
Outline: as §1

KDM4C (TTP) = system: KDM4C (TTP)
Outline: as §1

PHF21A = conditions: GST-tagged PHF21A
Outline: as §1

ING1 = conditions: GST-tagged ING1
Outline: as §1

RAG2 = conditions: GST-tagged RAG2
Outline: as §1

KDM5A (3) = conditions: GST-tagged KDM5A (3)
Outline: as §1

KDM5B (3) = conditions: GST-tagged KDM5B (3)
Outline: as §1

TAF3 = conditions: GST-tagged TAF3
Outline: as §1

DIDO1 = conditions: GST-tagged DIDO1
Outline: as §1

KDM5A (1) = conditions: GST-tagged KDM5A (1)
Outline: as §1

KDM5B (1) = conditions: GST-tagged KDM5B (1)
Outline: as §1

PHF13 = conditions: GST-tagged PHF13
Outline: as §1

ING4 = conditions: GST-tagged ING4
Outline: as §1

ING5 = conditions: GST-tagged ING5
Outline: as §1

MLL5 = conditions: GST-tagged MLL5
Outline: as §1

BAZ2B = conditions: GST-tagged BAZ2B
Outline: as §1

TRIM66 (PB) = system: TRIM66 (PB)
Outline: as §1

PHRF1 (RP) = conditions: GST-tagged PHRF1 (RP)
Outline: as §1

PHF8 = conditions: GST-tagged PHF8
Outline: as §1

CHD5 (PPCC) = system: CHD5 (PPCC)
Outline: as §1

MORC3 (CW) = system: MORC3 (CW)
Outline: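 Steps: express and purify GST-tagged PHD reader; incubate 0.5 μM protein on a peptide microarray (293 histone peptides, single or combined PTMs) following an optimized protocol; average signal across 4 replicates.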

ING3 = conditions: GST-tagged ING3
Outline: as §1

PHF23 = conditions: GST-tagged PHF23
Outline: as §1

ING2 = conditions: GST-tagged ING2
Outline: as §1

[1] = sheet Array Heatmap, each array performed twice, total n = 4
[2] = sheet "Array Heatmap", arrays performed twice, total replicate number n = 4

H3K4me3 + K14ac + K18ac: H3 1-20
Array Heatmap signal (histone peptide microarray) (PHF2; [1]): 0.829
Array Heatmap signal (histone peptide microarray) (CHD5 (PCC); GST-tagged CHD5 (PCC = PHD + Dual Chromodomain), sheet Array Heatmap, each array performed twice, total n = 4): 0.8498
Array Heatmap signal (histone peptide microarray) (CHD4 (PPCC); GST-tagged CHD4 (PPCC = Dual PHD + Dual Chromodomain), sheet Array Heatmap, each array performed twice, total n = 4): 0.5986
Array Heatmap signal (histone peptide microarray) (DPF2 (PPC2W2); GST-tagged DPF2 (PPC2W2 = Dual PHD + C2W2-type Zn-finger), sheet Array Heatmap, each array performed twice, total n = 4): 0.7705
Array Heatmap signal (histone peptide microarray) (BPTF (PB); GST-tagged BPTF (PB = PHD + Bromodomain), sheet Array Heatmap, each array performed twice, total n = 4): 1
Array Heatmap signal (histone peptide microarray) (KDM7A; [1]): 0.7919
Array Heatmap signal (histone peptide microarray) (SP140L; [1]): 0.3709
Array Heatmap signal (histone peptide microarray) (AIRE (PP); [1]): 0.5611
Array Heatmap signal (histone peptide microarray) (KDM4C (TTP); GST-tagged KDM4C (TTP = Tandem Tudor domain + PHD), sheet Array Heatmap, each array performed twice, total n = 4): 0.868
Array Heatmap signal (histone peptide microarray) (PHF21A; [1]): 0.4924
Array Heatmap signal (histone peptide microarray) (ING1; [1]): 0.9274
Array Heatmap signal (histone peptide microarray) (RAG2; [1]): 1
Array Heatmap signal (histone peptide microarray) (KDM5A (3); [1]): 0.9424
Array Heatmap signal (histone peptide microarray) (KDM5B (3); [1]): 0.9729
Array Heatmap signal (histone peptide microarray) (TAF3; [1]): 1
Array Heatmap signal (histone peptide microarray) (DIDO1; [1]): 0.9566
Array Heatmap signal (histone peptide microarray) (KDM5A (1); [1]): 0.5146
Array Heatmap signal (histone peptide microarray) (KDM5B (1); [1]): 0.8317
Array Heatmap signal (histone peptide microarray) (PHF13; [1]): 0.9146
Array Heatmap signal (histone peptide microarray) (ING4; [1]): 0.8448
Array Heatmap signal (histone peptide microarray) (ING5; [1]): 0.6681
Array Heatmap signal (histone peptide microarray) (MLL5; [1]): 0.9197
Array Heatmap signal (histone peptide microarray) (BAZ2B; [1]): 0.6645
Array Heatmap signal (histone peptide microarray) (TRIM66 (PB); GST-tagged TRIM66 (PB = PHD + Bromodomain), sheet Array Heatmap, each array performed twice, total n = 4): 0.7091
Array Heatmap signal (histone peptide microarray) (PHRF1 (RP); [1]): 0.6285
Array Heatmap signal (histone peptide microarray) (PHF8; [1]): 0.9943
Array Heatmap signal (histone peptide microarray) (CHD5 (PPCC); GST-tagged CHD5 (PPCC = Dual PHD + Dual Chromodomain), sheet Array Heatmap, each array performed twice, total n = 4): 0.6153
Array Heatmap signal (histone peptide microarray) (MORC3 (CW); GST-tagged MORC3 (CW = CW-type Zn-finger), sheet Array Heatmap, each array performed twice, total n = 4): 0.9877
Array Heatmap signal (histone peptide microarray) (ING3; [1]): 1
Array Heatmap signal (histone peptide microarray) (PHF23; [1]): 0.9183
Array Heatmap signal (histone peptide microarray) (ING2; [1]): 0.908

H3K56me3 (52-61): H3 52-61 (RRYQK(Me3)STELL; UniProt P68431 53-62, looked up, fragment)
Array Heatmap signal, PHF2 (PHF2; [2]): 0.4592
Array Heatmap signal, CHD5 (PCC) (CHD5 (PCC); sheet "Array Heatmap", GST-tagged CHD5 (PCC), arrays performed twice, total replicate number n = 4): 0.7613
Array Heatmap signal, CHD4 (PPCC) (CHD4 (PPCC); sheet "Array Heatmap", GST-tagged CHD4 (PPCC), arrays performed twice, total replicate number n = 4): 0.5342
Array Heatmap signal, DPF2 (PPC2W2) (DPF2 (PPC2W2); sheet "Array Heatmap", GST-tagged DPF2 (PPC2W2), arrays performed twice, total replicate number n = 4): 0.6082
Array Heatmap signal, BPTF (PB) (BPTF (PB); sheet "Array Heatmap", GST-tagged BPTF (PB), arrays performed twice, total replicate number n = 4): 0.343
Array Heatmap signal, KDM7A (KDM7A; [2]): 0.3588
Array Heatmap signal, SP140L (SP140L; [2]): 0.3549
Array Heatmap signal, AIRE (PP) (AIRE (PP); [2]): 0.4132
Array Heatmap signal, KDM4C (TTP) (KDM4C (TTP); sheet "Array Heatmap", GST-tagged KDM4C (TTP), arrays performed twice, total replicate number n = 4): 0.4664
Array Heatmap signal, PHF21A (PHF21A; [2]): 0.4399
Array Heatmap signal, ING1 (ING1; [2]): 0.5013
Array Heatmap signal, RAG2 (RAG2; [2]): 0.2347
Array Heatmap signal, KDM5A (3) (KDM5A (3); [2]): 0.4564
Array Heatmap signal, KDM5B (3) (KDM5B (3); [2]): 0.4529
Array Heatmap signal, TAF3 (TAF3; [2]): 0.2469
Array Heatmap signal, DIDO1 (DIDO1; [2]): 0.6681
Array Heatmap signal, KDM5A (1) (KDM5A (1); [2]): 0.4335
Array Heatmap signal, KDM5B (1) (KDM5B (1); [2]): 0.6393
Array Heatmap signal, PHF13 (PHF13; [2]): 0.5794
Array Heatmap signal, ING4 (ING4; [2]): 0.4217
Array Heatmap signal, ING5 (ING5; [2]): 0.3269
Array Heatmap signal, MLL5 (MLL5; [2]): 0.5095
Array Heatmap signal, BAZ2B (BAZ2B; [2]): 0.4232
Array Heatmap signal, TRIM66 (PB) (TRIM66 (PB); sheet "Array Heatmap", GST-tagged TRIM66 (PB), arrays performed twice, total replicate number n = 4): 0.5682
Array Heatmap signal, PHRF1 (RP) (PHRF1 (RP); [2]): 0.4158
Array Heatmap signal, PHF8 (PHF8; [2]): 0.3607
Array Heatmap signal, CHD5 (PPCC) (CHD5 (PPCC); sheet "Array Heatmap", GST-tagged CHD5 (PPCC), arrays performed twice, total replicate number n = 4): 0.5162
Array Heatmap signal, MORC3 (CW) (MORC3 (CW); sheet "Array Heatmap", GST-tagged MORC3 (CW), arrays performed twice, total replicate number n = 4): 0.3573
Array Heatmap signal, ING3 (ING3; [2]): 0.4641
Array Heatmap signal, PHF23 (PHF23; [2]): 0.5132
Array Heatmap signal, ING2 (ING2; [2]): 0.5755
